# Target: T1, Streptokinase A (Streptococcus pyogenes serotype M1, UniProt P10520)
# T1 sequence (P10520 whole entry): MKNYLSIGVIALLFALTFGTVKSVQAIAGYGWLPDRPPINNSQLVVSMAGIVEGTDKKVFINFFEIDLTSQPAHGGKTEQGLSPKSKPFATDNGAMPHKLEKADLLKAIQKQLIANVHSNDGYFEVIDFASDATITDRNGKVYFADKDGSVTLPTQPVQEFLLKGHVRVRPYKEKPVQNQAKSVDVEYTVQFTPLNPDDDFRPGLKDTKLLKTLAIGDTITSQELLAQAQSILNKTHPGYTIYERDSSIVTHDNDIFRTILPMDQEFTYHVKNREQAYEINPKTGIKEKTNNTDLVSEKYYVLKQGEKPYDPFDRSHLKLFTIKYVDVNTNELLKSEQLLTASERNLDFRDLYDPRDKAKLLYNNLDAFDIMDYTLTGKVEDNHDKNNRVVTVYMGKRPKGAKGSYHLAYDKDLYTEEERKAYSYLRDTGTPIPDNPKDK
# Experiment: S. pyogenes streptokinase expression inhibitors, potency, dose response, plasminogen activation absorbance, OD405 (AID 1914)
row,SMILES,EC50 [µM]
1,O=C1C=CC(N=Nc2ccc([N+](=O)[O-])cc2)C(O)=C1 (centres undefined) [MLS000530152],50
2,O=C1C([N+](=O)[O-])=CC(Cl)=CC1CN=Nc1ccccn1 (centres undefined) [MLS000539830],11.1
3,O=NC(c1ccc(Cl)cc1Cl)c1ncc(C(F)(F)F)cc1Cl (centres undefined) [MLS000540015],35.2
4,Cc1ccc(-n2c(=O)c3[nH][nH]n(CC(=O)N4N=C(c5cccc6ccccc56)CC4c4ccccc4)c=3c2=O)cc1 (centres undefined) [MLS000546672],35.7
5,CC(C)(C)C1CCC2=C(C#N)C(=N)C(C#N)(C#N)C(c3cccs3)C2C1 (centres undefined) [MLS000552642],25.7
6,c1csc(CN=Nc2ncnc3sc4c(c23)CCC4)c1 [MLS000571423],> 150
7,N#CC1C(=N)OC2=C(CCc3ccccc32)C1c1ccccc1Cl (centres undefined) [MLS000586146],11.9
8,COc1ccc(C2C(C(=O)c3ccccc3)C(C)=Nc3nc4ccccc4n32)c(OC)c1 (centres undefined) [MLS000586747],> 150
9,COc1ccc(CN=Nc2cc(C)nc(-n3nc(C)cc3C)n2)c(OC)c1 [MLS000589396],> 150
10,O=C(O)c1ccc(N=NCc2ccc(OC(=O)c3ccccc3Cl)cc2)cc1 [MLS000589715],> 150
11,C=Nc1c(N(C(C)=O)c2ccc(Br)cc2)c(O)c2ccccc2c1O [MLS000700612],23.9
12,CC(C)C(N=Nc1ccccc1[N+](=O)[O-])c1ccccc1 (centres undefined) [MLS000712651],18.4
13,Oc1ccc(Br)cc1CN=Nc1nc(N2CCCCC2)nc(N2CCOCC2)n1 [MLS000713264],33.6
14,CCOC(=O)c1ccc(NC(=O)Cc2sc(N=NCc3c[nH]c4ccccc34)nc2O)cc1 [MLS000722052],> 150
15,CC(N=Nc1ccc(C(=O)O)cc1)c1ccc2c(c1)Nc1ccccc1S2 (centres undefined) [MLS000759774],> 150
16,Cc1ccc(NC(=S)N/N=C2\C(=O)Nc3ccccc32)cc1 [MLS000760038],> 150
17,Cc1[nH]n(-c2nc3ccccc3[nH]2)c(=O)c1Cc1ccccc1 [MLS000762809],> 150
18,CCCCCCC(=O)NNC=C1C(=O)NC(=S)N(CCCC)C1=O [MLS000763126],> 150
19,O=C1N=C(Nc2ccccc2)SC1=Cc1c[nH]c2ccccc12 [MLS000766635],> 150
20,COC1=CC(CN=Nc2nc3ccccc3s2)C=C([N+](=O)[O-])C1=O (centres undefined) [MLS000777866],> 150
21,O=C1N=c2ccccc2=C1NNC(=S)N1CCOCC1 [MLS000778251],> 150
22,CCCOc1ccc(C2C(C(=O)c3cc4ccccc4o3)C(=O)C(=O)N2c2cc(C)on2)cc1OC (centres undefined) [MLS001142810],> 150

row,SMILES,EC50 [µM]
1,Cc1ccc(C2C(C(=O)c3cc4ccccc4o3)C(=O)C(=O)N2c2cc(C)on2)cc1 (centres undefined) [MLS001147776],6.3
2,N#CC(C(=O)CCl)c1nc2c(s1)CCc1ccccc1-2 (centres undefined) [MLS001171530],> 150
3,O=C(Nc1nnc(-c2ccc(Br)cc2)o1)c1cccc(-n2c(O)ccc2O)c1 [MLS001235111],> 150
4,COC(=O)/N=N/C=C1\C=[N+]([O-])c2ccccc2N1O [MLS001333201],> 150
5,"COc1ccc(CN=Nc2nc(Nc3ccccc3)nc(N3CCCCC3)n2)cc1OC [N2-[(3,4-dimethoxyphenyl)methylideneamino]-N4-phenyl-6-piperidin-1-yl-1,3,5-triazine-2,4-diamine]",> 150
6,"O=C1C([N+](=O)[O-])=CC(Cl)=CC1/C=N/NC(=O)C(O)(c1ccccc1)c1ccccc1 (centres undefined) [N''''-[(E)-(3-chloro-5-nitro-6-oxocyclohexa-2,4-dien-1-ylidene)methyl]-2-hydroxy-2,2-diphenylacetohydrazide]",> 150
7,COC1=CC([N+](=O)[O-])=CC(/C=N/NC(=O)C(C)Nc2cccc(C)c2)C1=O (centres undefined) [N'-[(1E)-(2-hydroxy-3-methoxy-5-nitrophenyl)methylene]-2-[(3-methylphenyl)amino]propanohydrazide],> 150
8,"O=C1NC(=S)N(C2CCCCC2)C(=O)C1=CNNC(=O)c1ccccc1 [N'-[(E)-(1-cyclohexyl-4,6-dioxo-2-sulfanylidene-1,3-diazinan-5-ylidene)methyl]benzohydrazide]",> 150
9,"O=C1NC(=O)N(Cc2ccccc2)C(=O)C1=CNNC(=O)c1ccccc1 [N'-[(E)-[2,4,6-tris(oxidanylidene)-1-(phenylmethyl)-1,3-diazinan-5-ylidene]methyl]benzohydrazide]",> 150
10,"CN(C)S(=O)(=O)c1ccc(-c2csc(N=NCc3ccc(O)cc3)n2)cc1 [N,N-dimethyl-4-[2-[2-[(4-oxidanylidenecyclohexa-2,5-dien-1-ylidene)methyl]hydrazinyl]-1,3-thiazol-4-yl]benzenesulfonamide]",> 150
11,Cc1[nH]c2ccccc2c1CN=Nc1nc2ccccc2[nH]1 [N-(1H-Benzoimidazol-2-yl)-N'-[1-(2-methyl-1H-indol-3-yl)-meth-(E)-ylidene]-hydrazine],> 150
12,O=C1Nc2ccccc2C1=NNc1ccc(S(=O)(=O)Nc2cccc(Cl)c2)cc1[N+](=O)[O-] [N-(3-chlorophenyl)-3-nitro-4-[2-(2-oxoindol-3-yl)hydrazinyl]benzenesulfonamide],27.4
13,Cc1nc(N=NC(C)c2ccc(Br)cc2)cc(N2CCCCC2)n1 (centres undefined) [N-[1-(4-bromophenyl)ethylideneamino]-2-methyl-6-piperidin-1-ylpyrimidin-4-amine],46.7
14,"CC(NNC(=O)c1cc2ccccc2cc1O)=C1C(=O)c2ccccc2C1=O [N-[1-[1,3-bis(oxidanylidene)inden-2-yl]ethylideneamino]-3-oxidanyl-naphthalene-2-carboxamide]",> 150
15,Cc1ccc2c(c1)=C(NNC(=O)c1ccc(NS(=O)(=O)c3cccs3)cc1)C(=O)N=2 [N-[4-[[(5-methyl-2-oxoindol-3-yl)amino]carbamoyl]phenyl]thiophene-2-sulfonamide],> 150
16,"O=C(CCCCCNC(=O)c1ccccc1)NNC1=c2cc(Br)cc(Br)c2=NC1=O [N-[6-[2-[5,7-bis(bromanyl)-2-oxidanylidene-indol-3-yl]hydrazinyl]-6-oxidanylidene-hexyl]benzamide]",> 150
17,"CN1c2ccsc2C(NNc2ccccc2)=CS1(=O)=O [N-[(1-methyl-2,2-dioxo-4-thieno[3,2-c]thiazinylidene)amino]aniline]",4.12
18,Cc1cc(N=NCc2cccc(Br)c2)nc2ccccc12 [N-[(3-bromophenyl)methylideneamino]-4-methyl-2-quinolinamine],> 150
19,"O=[N+]([O-])c1cccc(CN=Nc2nc(N3CCCCC3)nc(N3CCCCC3)n2)c1 [N-[(3-nitrophenyl)methylideneamino]-4,6-bis(1-piperidinyl)-1,3,5-triazin-2-amine]",39.4
20,CCCCN1C(=O)/C(=N\NC(=O)c2ccccc2NS(=O)(=O)c2cccs2)c2ccccc21 [N-[(Z)-(1-butyl-2-oxoindol-3-ylidene)amino]-2-(thiophen-2-ylsulfonylamino)benzamide],> 150
21,"Cn1cnnc1SCc1ccc(C(=O)N/N=C2\C(=O)N(Cc3ccc(Cl)cc3)c3ccccc32)cc1 [N-[(Z)-[1-[(4-chlorophenyl)methyl]-2-oxidanylidene-indol-3-ylidene]amino]-4-[(4-methyl-1,2,4-triazol-3-yl)sulfanylmethyl]benzamide]",18
22,Cc1ccc(-c2nn(-c3ccccc3)cc2CN=O)cc1 [N-[[3-(4-methylphenyl)-1-phenylpyrazol-4-yl]methylidene]hydroxylamine],> 150

# Source: BindingDB's records for doi:10.7270/Q2736PBV (Broad Institute, 2009)
